From patent EP1013767A1, “Method of screening for agrochemicals” (AMERICAN CYANAMID COMPANY, priority 1998, dated 2000)
“Also recorded” adds a separate entry of the source.

Legend:
LOX2:Hv:1 = assay: Northern blot analysis of LOX2:Hv:1 mRNA accumulation in primary leaves of barley; assay type: in vivo, Barley (Hordeum vulgare L.); conditions: for kinetics of LOX2:Hv:1 transcript accumulation: 45 µM JM compared with 45 µM SA; for accumulation of LOX transcript: barley seedlings, powdery mildew susceptible and mlo-resistant cultivar, DCINA soil drench 10 mg active ingredient/L soil volume, BTH 1 mM spray
Procedure: (§1) Barley (Hordeum vulgare L.) mlo-resistant cultivar Salome as well as the susceptible cultivars Pallas and Manchuria were grown as described for example by Hause et al., J. Plant Physiol. 150, 127-132 (1997). Inoculation with conidia of Blumeria graminis f. sp. hordei race A6 (Wiberg, Hereditas 77, 89-148 (1974)) were performed at a density of 10 conidia per mm^2 with the primary leaf of seven-days-old seedlings at the onset of the light period.
(§2) Segments of seven-days-old primary leaves were freshly harvested and either floated on water, freshly prepared (±) JM, or Na-salicylate.
(§3) DCINA (2,6-dichloroisonicotinic acid), formulated as 25 % active ingredient with a wettable powder (WP) carrier (Métraux et al., Advances in molecular genetics of plant microbe interactions. Vol. 1, Kluwer Academic Publishers, Dordrecht, The Netherlands, pp. 432-439 (1991)), was applied to 7-days-old barley seedlings as a soil drench at a final concentration of 10 mg active ingredient/L soil volume. BTH (benzo[1,2,3]-thiadiazole-7-carbothioic acid S-methyl ester) was applied at a concentration of 1 mM by spraying a formulation with WP in distilled water. Controls were treated with WP.
Total RNA was extracted as described for example by Hause et al., Plant Cell Physiol. 37, 641-649 (1996). Northern blot analysis was performed with digoxigenin-Iabelled cDNAs (DIG-High Prime labelling Kit, Boehringer Mannheim) of barley LOX2:Hv:1 (Vörös et al., loc. cit) and barley PR1b (Bryngelsson et al., Mol. Plant-Microbe Int. 7, 267-275 (1994)).

PR1b = assay: Northern blot analysis of PR1b mRNA accumulation in barley; assay type: in vivo, Barley (Hordeum vulgare L.); conditions: in response to treatment
Procedure: as §1, §2, §3
Total RNA was extracted as described for example by Hause et al., Plant Cell Physiol. 37, 641-649 (1996). […]

PR genes = conditions: wheat; cited from earlier work
powdery mildew fungus = conditions: barley, against the powdery mildew fungus; cited from earlier work

SMILES | kinetics of LOX2:Hv:1 transcript accumulation (LOX2:Hv:1) | sensitivity of LOX2:Hv:1 (dose-response curves) (LOX2:Hv:1; JM compared with SA treatment, Fig. 1) | PR1b mRNA accumulation (PR1b) | accumulation of LOX transcript (LOX2:Hv:1) | LOX2:Hv:1 induction, BTH compared with DCINA (LOX2:Hv:1; in all experiments) | activation of PR genes (PR genes) | LOX2:Hv:1 expression (LOX2:Hv:1; treatment with SA, cultivar Salome, leaf segments, 24 hours (Fig. 1)) | activation of SAR (powdery mildew fungus)
CCC=CCC1C(=O)CCC1CC(=O)OC (racemic) [JM, jasmonic acid methyl ester] | No differences | slightly higher sensitivity | not found |  |  |  |  | 
CSC(=O)c1cccc2nnsc12 [BTH, benzo[1,2,3]-thiadiazole-7-carbothioic acid S-methyl ester] |  |  | not pathogen related genes like PR1b | accumulation of LOX transcript; also recorded: activate LOX | stronger induced | strongly activate |  | 
O=C(O)c1cc(Cl)nc(Cl)c1 [DCINA, 2,6-dichloroisonicotinic acid] |  |  |  | accumulation of LOX transcript |  | strongly activate |  | 
O=C(O)c1ccccc1O [SA, salicylic acid] | No differences |  |  |  |  | strongly activate | induced | activated SAR
